Common to all, as to test: combination Emax (second highest fraction inhibited in the dose matrix, 72 h); higher = more inhibition; extreme values may be limits of the assay
Test [1] concerns NCI-H1568 (Lung Adenocarcinoma). The essentials:
(§1)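 Cell lines grown in DMEM/F12 or RPMI with 10% FBS were plated in 1536-well plates and held 24 hours at 37°C, 5% CO2 before 72 hours of exposure to two-drug dose matrices, with DMSO typically at 0.2%. CellTiter-Glo 2.0 luminescence gave viability, which was converted to inhibition. Vehicle wells were set to 0 and blank wells to 1. Combination Emax is the second-highest inhibition in the matrix, and Bliss excess is the observed combination effect minus the expected EA + EB − EA·EB, where EA and EB are the single-agent effects.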

For test [2], the system named is OV-56 (Ovarian Carcinoma). A digest of the protocol: as §1
Another test deals with LOXIMVI (Melanoma). The essentials: as §1
The next test concerns GAMG (Glioblastoma). A digest of the protocol: as §1
In test [3] the test system is NCI-H524 (Small Cell Lung Carcinoma). A digest of the protocol: as §1
The subject of test [4] is OVCAR-5 (Ovarian Carcinoma). A digest of the protocol:
as §1

In another test the test system is A673 (Ewing's Sarcoma). A digest of the protocol:
as §1

For test [5], the system named is OE21 (Esophageal Squamous Cell Carcinoma). A digest of the protocol:
as §1

The test system of test [6] is LS-123 (Colorectal Carcinoma). The essentials: as §1
The test system of another test is NCI-H2722 (Mesothelioma). A digest of the protocol: as §1

`Cn1cnc2c(F)c(Nc3ccc(Br)cc3Cl)c(C(=O)NOCCO)cc21` [Selumetinib] + CCN(CCO)CCCOc1ccc2c(Nc3cc(CC(=O)Nc4cccc(F)c4)[nH]n3)ncnc2c1 [AZD2811] (first compound max 10 µM, 7x7, partner max 1 µM): the “combination Emax” value in test [1] amounted to 0.207; in test [2] it was 0.116; in the test with LOXIMVI (Melanoma) it was 0.683; in the test with GAMG (Glioblastoma) it was 0.52; in test [3], 0.955; in test [4], 0.507. Moreover, the “combination Emax” value with A673 (Ewing's Sarcoma) was found to be 0.658; in test [5] it was 0.441; in test [6], 0.425; in the test on NCI-H2722 (Mesothelioma), 0.186.
Regarding `CC(=O)Nc1cccc(-n2c(=O)n(C3CC3)c(=O)c3c(Nc4ccc(I)cc4F)n(C)c(=O)c(C)c32)c1` [Trametinib] + Cc1nc(-c2cn3c(n2)-c2ccc(-c4cnn(C(C)(C)C(N)=O)c4)cc2OCC3)n(C(C)C)n1 [Taselisib] (first compound max 1 µM, 7x7, partner max 10 µM), the “combination Emax” value stood at 0.763 in test [1]; 0.607 in test [2]; 1 with LOXIMVI (Melanoma); 0.783 in the test with GAMG (Glioblastoma); 0.829 in [3]; 0.905 in test [4]. Moreover, the “combination Emax” value with A673 (Ewing's Sarcoma) turned out to be 0.722; in [5], 0.952; in test [6], 0.885; with NCI-H2722 (Mesothelioma), 0.666.
As for `CC1(C)CCC(CN2CCN(c3ccc(C(=O)NS(=O)(=O)c4ccc(NCC5CCOCC5)c([N+](=O)[O-])c4)c(Oc4cnc5[nH]ccc5c4)c3)CC2)=C(c2ccc(Cl)cc2)C1` [Venetoclax] + CCN(CCO)CCCOc1ccc2c(Nc3cc(CC(=O)Nc4cccc(F)c4)[nH]n3)ncnc2c1 [AZD2811] (first compound max 1 µM, 7x7, partner max 1 µM), the “combination Emax” value was 0.209 in [1]; 0.195 in [2]; 0.21 with LOXIMVI (Melanoma); 0.598 in the test with GAMG (Glioblastoma); 0.985 in [3]; 0.315 in [4]. In addition, the “combination Emax” value came out at 0.861 with A673 (Ewing's Sarcoma), 0.159 in test [5], 0.162 in test [6] and 0.23 in the test on NCI-H2722 (Mesothelioma).
`CC1(C)CCC(CN2CCN(c3ccc(C(=O)NS(=O)(=O)c4ccc(NCC5CCOCC5)c([N+](=O)[O-])c4)c(Oc4cnc5[nH]ccc5c4)c3)CC2)=C(c2ccc(Cl)cc2)C1` [Venetoclax] + C1CN(CCC1(C(=O)N[C@@H](CCO)C2=CC=C(C=C2)Cl)N)C3=NC=NC4=C3C=CN4 [Capivasertib] (first compound max 1 µM, 7x7, partner max 3 µM): the “combination Emax” value in [1] was determined as 0.133; in test [2] it was 0.153; in the test on LOXIMVI (Melanoma), 0.247; in the test with GAMG (Glioblastoma) it was 0.505; in test [3] it was 0.166; in test [4], 0.262. The “combination Emax” value was determined as 0.588 in the test with A673 (Ewing's Sarcoma), 0.48 in test [5], 0.34 in test [6] and 0.162 in the test on NCI-H2722 (Mesothelioma).
`Cc1c2c(nn1C)CSCc1cc(n(C)n1)CSc1cc(c3ccccc3c1)OCCCc1c(C(=O)O)n(C)c3c-2c(Cl)ccc13` [AZD5991] + CN(C)CCCOc1ccc(-c2ccc3ncc4c(c3c2)n(C2CCOCC2)c(=O)n4C)cn1 [AZD0156] (first compound max 1 µM, 7x7, partner max 1 µM): the “combination Emax” value was 0.401 in [1]; 0.181 in [2]; 0.363 in the test on LOXIMVI (Melanoma); 0.255 with GAMG (Glioblastoma); 0.452 in test [3]; 0.251 in test [4]. In addition, the “combination Emax” value in the test with A673 (Ewing's Sarcoma) came out at 0.438; in test [5], 0.345; in test [6], 0.162; in the test on NCI-H2722 (Mesothelioma) it was 0.243.
Regarding `NC1(C(=O)N[C@@H](CCO)c2ccc(Cl)cc2)CCN(c2ncnc3[nH]ccc23)CC1` [Capivasertib] + CCN(CCO)CCCOc1ccc2c(Nc3cc(CC(=O)Nc4cccc(F)c4)[nH]n3)ncnc2c1 [AZD2811] (first compound max 10 µM, 7x7, partner max 1 µM), the “combination Emax” value in test [1] amounted to 0.22; in [2], 0.249; with LOXIMVI (Melanoma) it was 0.517; in the test with GAMG (Glioblastoma) it was 0.669; in test [3], 0.992; in test [4] it was 0.401. In addition, the “combination Emax” value in the test with A673 (Ewing's Sarcoma) is 0.703; in [5], 0.642; in test [6], 0.398; in the test with NCI-H2722 (Mesothelioma), 0.515.
For `CC1(C)CCC(CN2CCN(c3ccc(C(=O)NS(=O)(=O)c4ccc(NCC5CCOCC5)c([N+](=O)[O-])c4)c(Oc4cnc5[nH]ccc5c4)c3)CC2)=C(c2ccc(Cl)cc2)C1` [Venetoclax] + COc1cc(Nc2ncc3c(n2)-c2ccc(Cl)cc2C(c2c(F)cccc2OC)=NC3)ccc1C(=O)O [Alisertib] (first compound max 1 µM, 7x7, partner max 10 µM), the “combination Emax” value was found to be 0.259 in test [1]; 0.225 in [2]; 0.5 in the test on LOXIMVI (Melanoma); 0.662 with GAMG (Glioblastoma); 0.991 in test [3]; 0.335 in test [4]. Also, the “combination Emax” value in the test with A673 (Ewing's Sarcoma) amounted to 0.835; in [5] it was 0.382; in test [6] it was 0.385; in the test with NCI-H2722 (Mesothelioma), 0.281.
Consider `CC(=O)c1c(C)c2cnc(Nc3ccc(N4CCNCC4)cn3)nc2n(C2CCCC2)c1=O` [Palbociclib] + CC1(C)CCC(CN2CCN(c3ccc(C(=O)NS(=O)(=O)c4ccc(NCC5CCOCC5)c([N+](=O)[O-])c4)c(Oc4cnc5[nH]ccc5c4)c3)CC2)=C(c2ccc(Cl)cc2)C1 [Venetoclax] (first compound max 10 µM, 7x7, partner max 1 µM), for which the “combination Emax” value in test [1] was 0.423; in test [2], 0.117; in the test with LOXIMVI (Melanoma), 0.515; in the test on GAMG (Glioblastoma), 0.231; in test [3], 0.685; in test [4] it was 0.346. Further, the “combination Emax” value was 0.136 in the test on A673 (Ewing's Sarcoma), 0.229 in [5], 0.138 in test [6] and 0.118 with NCI-H2722 (Mesothelioma).
With `CC1(C)CCC(CN2CCN(c3ccc(C(=O)NS(=O)(=O)c4ccc(NCC5CCOCC5)c([N+](=O)[O-])c4)c(Oc4cnc5[nH]ccc5c4)c3)CC2)=C(c2ccc(Cl)cc2)C1` [Venetoclax] + C=CCn1c(=O)c2cnc(Nc3ccc(N4CCN(C)CC4)cc3)nc2n1-c1cccc(C(C)(C)O)n1 [AZD1775] (first compound max 1 µM, partner max 1 µM), the “combination Emax” value in test [1] was determined as 0.479; in [2] it was 0.168; with LOXIMVI (Melanoma) it was 0.622; in the test with GAMG (Glioblastoma) it was 0.836; in test [3], 0.895; in [4], 0.75. Moreover, the “combination Emax” value with A673 (Ewing's Sarcoma) turned out to be 0.862; in test [5] it was 0.636; in test [6] it was 0.633; in the test with NCI-H2722 (Mesothelioma), 0.311.
Regarding `Cc1c2c(nn1C)CSCc1cc(n(C)n1)CSc1cc(c3ccccc3c1)OCCCc1c(C(=O)O)n(C)c3c-2c(Cl)ccc13` [AZD5991] + CC1(C)CCC(CN2CCN(c3ccc(C(=O)NS(=O)(=O)c4ccc(NCC5CCOCC5)c([N+](=O)[O-])c4)c(Oc4cnc5[nH]ccc5c4)c3)CC2)=C(c2ccc(Cl)cc2)C1 [Venetoclax] (first compound max 1 µM, 7x7, partner max 1 µM), the “combination Emax” value in [1] was 0.248; in test [2], 0.173; in the test on LOXIMVI (Melanoma), 0.229; in the test with GAMG (Glioblastoma) it was 0.315; in [3], 0.629; in test [4], 0.159. Besides, the “combination Emax” value with A673 (Ewing's Sarcoma) is 0.868; in test [5], 0.454; in [6], 0.142; in the test on NCI-H2722 (Mesothelioma), 0.122.

(Values after the supplement of paper PMC11061612.)
